Like-named read-outs stand apart in the source and are kept apart here.
Key:
[1] = Rat 28-day toxicokinetics; type: in vivo; settings: plasma, po; for half-life: read-out: apparent terminal half-life (converted); for AUC: read-out: AUC within 24 hours post dosing
Method: In the rat repeated-dose toxicokinetic study, fexinidazole was administered orally by gavage once a day for 28 consecutive days to ten or fifteen Crl:CD (SD)IGS BR rats/sex/group at doses of 50, 200, or 800 mg/kg/day. A control group received the vehicle alone (5% Tween 80/0.5% methocel). Ten animals/sex/group were sacrificed at the end of the treatment period on day 29 or 30 of study. The remaining 5 animals/sex/group in the control and high-dose groups were sacrificed on day 43 at the end of a 2-weeks observation period. Systemic exposure to fexinidazole and its sulfoxide and sulfone metabolites was evaluated in three additional animals/sex/group. Samples were taken at predose, and 30 min, 1, 2, 4, 8 and 24 h after dosing on days 1, 14, and 28, and in addition at 48 and 72 h after treatment on day 28.
Toxicokinetic Report for the study No. 0504-2007
SD Standard deviation of the mean […]
t1/2,z Terminal half-life tmax Time to peak plasma concentration
ULOQ Upper limit of quantification
The study was conducted according to the study protocol and related amendment.
Fexinidazole was orally given by gavage once a day for 28 days to male and female Sprague Dawley rats according to the following scheme
Fexinidazole was suspended with 5% Tween 80 in 0.5% Methyl cellulose 400 cP.
6.2. Sample Collection and Handling
Blood samples (about 0.25 mL/sampling time) were withdrawn from retro-orbital sinus plexus under isofluorane anesthesia and put in heparinized plastic tubes kept on a ice-water bath, then centrifuged for 10 min at 1200g at +4°C and two aliquots of about 50 μL of plasma were stored in a freezer at -80°C until analysis. Blood was taken from three rats/gender/dose on Days 1 and 14 at pre-dose and 0.5, 1, 2, 4, 8 and 24 hours after dosing, on Day 28 at pre-dose and 1, 2, 4, 8, 24, 48 and 72 hours after dosing. After the administration of the vehicle, the samples were taken from three rats/gender at pre-dose and […]
6.3. Bioanalytical Method
Rat plasma concentrations of Fexinidazole and its sulfoxide (M1) and sulfone (M2) metabolites were determined by a validated LC/MS/MS method. The calibration range for the assay was 5-1000 ng/mL for Fexinidazole and 25-25000 ng/mL for M1 and M2.
Study samples containing analytes concentrations above the upper limit of quantitation were diluted with blank matrix prior to analysis.
6.4. Pharmacokinetic Calculations
Pharmacokinetic evaluation was carried out using non-compartmental approach with the aid […]
Excel spreadsheet (Microsoft Inc., Seattle, USA). […]
In the calculations, the undetectable concentrations between detectable ones were ignored.
After each dose level, Cmax and tmax of Fexinidazole and sulfoxide and sulfone metabolites […]
linear trapezoidal rule up to the last detectable concentration. On Day 28, since the blood […]
24 hours post dosing was calculated and denoted AUC0-24. This AUC was calculated in order to compare AUC values on Day 28 to those on Day 1 and Day 14. On Day 28, in addition, the half-life of the terminal phase, t1/2,z, was determined by linear regression analysis of the natural-log concentration vs. time curve, where t1/2,z = ln(2)/slope of the regression line.
Fexinidazole and metabolites accumulation ratios, based on Cmax (RA,Cmax), AUC0-24 (RA,AUC0-24) and AUC0-t(last) (RA,AUC0-t(last)), were calculated as the ratio between the parameters obtained on Day 14 and Day 28 to the corresponding one at Day 1. […]
pharmacokinetic parameters of each compound sorted by dose, gender and day of dosing. […]
compound are reported in Tables 1 and 2, whilst individual and mean parameters of each […]
Individual and mean (±SD, CV%) plasma
2A1 - 19A1 of Appendix 1. Individual plasma concentrations of Fexinidazole and both metabolites are plot in Figures 1 - 9, whilst the mean concentrations are plot in Figures 10 - 15. Mean normalized Cmax and AUC0-t(last) values of Fexinidazole and metabolites vs. dose are plot in Figures 16 - 21.
In-study bioanalytical validation data are reported in Appendix 2. All analytical batches met […]

human lymphocytes = experiment: In vitro micronucleus test; type: cell-based
Method: Duplicate human lymphocyte cultures were prepared from the pooled blood of two donors in two independent experiments. […] The test concentrations for micronucleus analysis were selected by evaluating the effect of fexinidazole on the replication index (RI). In each experiment, micronuclei were analysed at three concentrations. Similar tests were carried out on fexinidazole sulfone. As per the Ames test, this was carried out in the absence of rat liver S9 only.

[2] = One-electron reduction potential by pulse radiolysis; type: physicochemical
Method: One-electron reduction potentials were determined by pulse radiolysis following an established procedure.

[3] = Sprague-Dawley (Crl:CD (SD)IGS BR), 50 mg/kg/day, 50 mg/kg/day po, day 1
[4] = Sprague-Dawley (Crl:CD (SD)IGS BR), 50 mg/kg/day, 50 mg/kg/day po, day 14
[5] = Sprague-Dawley (Crl:CD (SD)IGS BR), 200 mg/kg/day, 200 mg/kg/day po, day 1
[6] = both sexes, Sprague-Dawley (Crl:CD (SD)IGS BR), 200 mg/kg/day, 200 mg/kg/day po, day 14
[7] = both sexes, Sprague-Dawley (Crl:CD (SD)IGS BR), 800 mg/kg/day, 800 mg/kg/day po, day 1
[8] = both sexes, Sprague-Dawley (Crl:CD (SD)IGS BR), 800 mg/kg/day, 800 mg/kg/day po, day 14

Cn1c([N+](=O)[O-])cnc1COc1ccc(S(C)(=O)=O)cc1 [Fexinidazole sulfone]
half-life ([1]; Sprague Dawley (Crl:CD (SD)IGS BR), 50 mg/kg/day, Day 28, female): 13 h
half-life ([1]; Sprague Dawley (Crl:CD (SD)IGS BR), 50 mg/kg/day, Day 28, male): 6.1 ± 1.2 h
half-life ([1]; Sprague Dawley (Crl:CD (SD)IGS BR), 200 mg/kg/day, Day 28, female): 7.3 h
half-life ([1]; Sprague Dawley (Crl:CD (SD)IGS BR), 200 mg/kg/day, Day 28, male): 7.5 h
half-life ([1]; Sprague Dawley (Crl:CD (SD)IGS BR), 800 mg/kg/day, Day 28, female (n=2)): 11 h
half-life ([1]; Sprague Dawley (Crl:CD (SD)IGS BR), 800 mg/kg/day, Day 28, male): 10 h
Cmax [1, 3]: 2920 ± 2260 ng/mL
Tmax [1, 3]: 7.33 ± 1.63 h
AUC(0-t) ([1]; Sprague-Dawley (Crl:CD (SD)IGS BR), 50 mg/kg/day, 50 mg/kg/day po, day 1, read-out: AUC0-t(last)): 36.1 ± 28.6 µg·h/mL
Cmax [1, 4]: 6380 ± 2300 ng/mL
Tmax [1, 4]: 6 ± 2.19 h
AUC(0-t) ([1]; Sprague-Dawley (Crl:CD (SD)IGS BR), 50 mg/kg/day, 50 mg/kg/day po, day 14, read-out: AUC0-t(last)): 89.6 ± 34.1 µg·h/mL
AUC ([1]; Sprague-Dawley (Crl:CD (SD)IGS BR), 50 mg/kg/day, Day 28, female): 175 µg·h/mL
AUC ([1]; Sprague-Dawley (Crl:CD (SD)IGS BR), 50 mg/kg/day, Day 28, male): 106 µg·h/mL
Cmax [1, 5]: 9290 ± 1750 ng/mL
Tmax [1, 5]: 8 h
AUC ([1]; Sprague-Dawley (Crl:CD (SD)IGS BR), 200 mg/kg/day, Day 28, female): 341 µg·h/mL
AUC ([1]; Sprague-Dawley (Crl:CD (SD)IGS BR), 200 mg/kg/day, Day 28, male): 341 µg·h/mL
AUC ([1]; Sprague-Dawley (Crl:CD (SD)IGS BR), 800 mg/kg/day, Day 28, female (n=2)): 572 µg·h/mL
AUC ([1]; Sprague-Dawley (Crl:CD (SD)IGS BR), 800 mg/kg/day, Day 28, male): 459 µg·h/mL
AUC(0-t) ([1]; both sexes, Sprague-Dawley (Crl:CD (SD)IGS BR), 200 mg/kg/day, 200 mg/kg/day po, day 1, read-out: AUC0-t(last)): 126 ± 17.5 µg·h/mL
Cmax [1, 6]: 20200 ± 2420 ng/mL
Tmax [1, 6]: 7.33 ± 1.63 h
AUC(0-t) ([1]; both sexes, Sprague-Dawley (Crl:CD (SD)IGS BR), 200 mg/kg/day, 200 mg/kg/day po, day 14, read-out: AUC0-t(last)): 287 ± 36.5 µg·h/mL
Cmax [1, 7]: 42600 ± 13100 ng/mL
Tmax [1, 7]: 10.7 ± 6.53 h
AUC(0-t) ([1]; both sexes, Sprague-Dawley (Crl:CD (SD)IGS BR), 800 mg/kg/day, 800 mg/kg/day po, day 1, read-out: AUC0-t(last)): 574 ± 256 µg·h/mL
Cmax [1, 8]: 40500 ± 13000 ng/mL
Tmax [1, 8]: 6.67 ± 2.07 h
AUC(0-t) ([1]; both sexes, Sprague-Dawley (Crl:CD (SD)IGS BR), 800 mg/kg/day, 800 mg/kg/day po, day 14, read-out: AUC0-t(last)): 543 ± 252 µg·h/mL
Cmax ([1]; female, Sprague Dawley (Crl:CD (SD)IGS BR), 50 mg/kg, Day 1, female): 4420 ± 2410 ng/mL
AUC(0-t) ([1]; female, Sprague Dawley (Crl:CD (SD)IGS BR), 50 mg/kg, Day 1, female, read-out: AUC0-t(last)): 55.8 ± 28.1 µg·h/mL
Cmax ([1]; female, Sprague Dawley (Crl:CD (SD)IGS BR), 50 mg/kg/day, Day 28, female): 10700 ng/mL
Cmax ([1]; female, Sprague Dawley (Crl:CD (SD)IGS BR), 200 mg/kg, Day 1, female): 10000 ± 815 ng/mL
AUC(0-t) ([1]; female, Sprague Dawley (Crl:CD (SD)IGS BR), 200 mg/kg, Day 1, female, read-out: AUC0-t(last)): 134 ± 10.8 µg·h/mL
Cmax ([1]; female, Sprague Dawley (Crl:CD (SD)IGS BR), 200 mg/kg/day, Day 28, female): 21400 ng/mL
Cmax ([1]; female, Sprague Dawley (Crl:CD (SD)IGS BR), 800 mg/kg, Day 1, female): 44800 ± 20100 ng/mL
AUC(0-t) ([1]; female, Sprague Dawley (Crl:CD (SD)IGS BR), 800 mg/kg, Day 1, female, read-out: AUC0-t(last)): 683 ± 241 µg·h/mL
Cmax ([1]; female, Sprague Dawley (Crl:CD (SD)IGS BR), 800 mg/kg/day, Day 28, female (n=2)): 41900 ng/mL
AUC(0-t) ([1]; female, Sprague-Dawley (Crl:CD (SD)IGS BR), 50 mg/kg/day, Day 28, female, read-out: AUC0-t(last)): 197 µg·h/mL
AUC(0-t) ([1]; female, Sprague-Dawley (Crl:CD (SD)IGS BR), 200 mg/kg/day, Day 28, female, read-out: AUC0-t(last)): 448 µg·h/mL
AUC(0-t) ([1]; female, Sprague-Dawley (Crl:CD (SD)IGS BR), 800 mg/kg/day, Day 28, female (n=2), read-out: AUC0-t(last)): 738 µg·h/mL
Cmax ([1]; male, Sprague Dawley (Crl:CD (SD)IGS BR), 50 mg/kg, Day 1, male): 1420 ± 393 ng/mL
AUC(0-t) ([1]; male, Sprague Dawley (Crl:CD (SD)IGS BR), 50 mg/kg, Day 1, male, read-out: AUC0-t(last)): 16.5 ± 9.76 µg·h/mL
Cmax ([1]; male, Sprague Dawley (Crl:CD (SD)IGS BR), 50 mg/kg/day, Day 28, male): 7750 ng/mL
Cmax ([1]; male, Sprague Dawley (Crl:CD (SD)IGS BR), 200 mg/kg, Day 1, male): 8550 ± 2310 ng/mL
AUC(0-t) ([1]; male, Sprague Dawley (Crl:CD (SD)IGS BR), 200 mg/kg, Day 1, male, read-out: AUC0-t(last)): 119 ± 21.9 µg·h/mL
Cmax ([1]; male, Sprague Dawley (Crl:CD (SD)IGS BR), 200 mg/kg/day, Day 28, male): 24200 ng/mL
Cmax ([1]; male, Sprague Dawley (Crl:CD (SD)IGS BR), 800 mg/kg, Day 1, male): 40300 ± 1560 ng/mL
AUC(0-t) ([1]; male, Sprague Dawley (Crl:CD (SD)IGS BR), 800 mg/kg, Day 1, male, read-out: AUC0-t(last)): 465 ± 264 µg·h/mL
Cmax ([1]; male, Sprague Dawley (Crl:CD (SD)IGS BR), 800 mg/kg/day, Day 28, male): 33000 ng/mL
AUC(0-t) ([1]; male, Sprague-Dawley (Crl:CD (SD)IGS BR), 50 mg/kg/day, Day 28, male, read-out: AUC0-t(last)): 113 µg·h/mL
AUC(0-t) ([1]; male, Sprague-Dawley (Crl:CD (SD)IGS BR), 200 mg/kg/day, Day 28, male, read-out: AUC0-t(last)): 387 µg·h/mL
AUC(0-t) ([1]; male, Sprague-Dawley (Crl:CD (SD)IGS BR), 800 mg/kg/day, Day 28, male, read-out: AUC0-t(last)): 509 µg·h/mL
in vitro micronucleus test result (human lymphocytes): negative
single electron redox potential [2]: −488 mV

Source: paper PMC3006138, “Fexinidazole – A New Oral Nitroimidazole Drug Candidate Entering Clinical Development for the Treatment of Sleeping Sickness” (PLoS Neglected Tropical Diseases, 2010)
